From publication PMC11345841, “Exploring 2-Sulfonylpyrimidine Warheads as Acrylamide Surrogates for Targeted Covalent Inhibition: A BTK Story” (Journal of Medicinal Chemistry, 2024)
Read-outs that look alike come from different tables or passages of the source.

What was measured:
Assay in all cases: KINOMEscan ScanTK
Assay type in all cases: binding
[1] = target: T1, TYK2(JH2domain-pseudokinase) (Homo sapiens, UniProt P29597)
T1 construct: TYK2(JH2domain-pseudokinase); purchased Eurofins DiscoverX KINOMEscan (scanTK)

[2] = target: T2, ERBB2 (Homo sapiens, UniProt P04626)
T2 construct: purchased Eurofins DiscoverX KINOMEscan (scanTK)

[3] = target: T3, ALK (Homo sapiens, UniProt Q9UM73)
T3 construct: purchased Eurofins DiscoverX KINOMEscan (scanTK)

[4] = target: T4, SRMS (Homo sapiens, UniProt Q9H3Y6); conditions: for remaining binding at 1 µM: SRMS
T4 construct: purchased Eurofins DiscoverX KINOMEscan (scanTK)

[5] = target: T5, TNK1 (Homo sapiens, UniProt Q13470)
T5 construct: purchased Eurofins DiscoverX KINOMEscan (scanTK)
T5 sequence (Q13470 1-666): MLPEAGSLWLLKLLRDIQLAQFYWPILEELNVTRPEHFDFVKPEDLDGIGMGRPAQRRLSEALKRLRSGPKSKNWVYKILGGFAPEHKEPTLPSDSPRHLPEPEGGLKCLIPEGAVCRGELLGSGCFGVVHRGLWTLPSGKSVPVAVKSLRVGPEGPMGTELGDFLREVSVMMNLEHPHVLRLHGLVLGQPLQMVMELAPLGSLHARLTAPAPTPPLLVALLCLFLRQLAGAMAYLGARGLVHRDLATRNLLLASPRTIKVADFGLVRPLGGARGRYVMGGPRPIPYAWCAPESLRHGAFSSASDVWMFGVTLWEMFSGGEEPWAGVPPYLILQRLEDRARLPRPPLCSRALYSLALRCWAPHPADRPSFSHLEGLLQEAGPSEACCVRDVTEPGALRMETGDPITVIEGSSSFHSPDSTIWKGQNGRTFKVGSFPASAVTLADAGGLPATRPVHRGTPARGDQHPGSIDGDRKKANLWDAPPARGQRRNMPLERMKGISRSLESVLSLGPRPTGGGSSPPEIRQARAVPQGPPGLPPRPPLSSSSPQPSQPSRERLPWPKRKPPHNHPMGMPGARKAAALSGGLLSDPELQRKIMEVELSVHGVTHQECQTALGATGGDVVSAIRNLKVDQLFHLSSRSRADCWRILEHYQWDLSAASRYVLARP

[6] = target: T6, TXK (Homo sapiens, UniProt P42681)
T6 construct: purchased Eurofins DiscoverX KINOMEscan (scanTK)
T6 sequence (P42681 1-527): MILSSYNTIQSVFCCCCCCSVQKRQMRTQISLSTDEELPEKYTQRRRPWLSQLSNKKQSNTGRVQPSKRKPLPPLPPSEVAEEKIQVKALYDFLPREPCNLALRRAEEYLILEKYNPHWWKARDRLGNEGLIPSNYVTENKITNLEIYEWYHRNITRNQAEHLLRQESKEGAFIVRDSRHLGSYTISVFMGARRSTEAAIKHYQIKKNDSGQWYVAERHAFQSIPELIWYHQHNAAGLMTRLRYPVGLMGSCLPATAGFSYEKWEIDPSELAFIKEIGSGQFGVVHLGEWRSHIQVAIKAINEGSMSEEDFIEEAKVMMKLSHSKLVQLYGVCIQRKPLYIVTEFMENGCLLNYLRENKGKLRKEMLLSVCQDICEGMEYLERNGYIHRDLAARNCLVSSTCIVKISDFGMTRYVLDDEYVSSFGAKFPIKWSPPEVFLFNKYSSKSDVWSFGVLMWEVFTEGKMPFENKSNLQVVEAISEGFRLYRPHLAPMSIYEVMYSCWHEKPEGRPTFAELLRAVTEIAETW

[7] = target: T7, FLT1 (Homo sapiens, UniProt P17948)
T7 construct: purchased Eurofins DiscoverX KINOMEscan (scanTK)

[8] = target: T8, TEC (Homo sapiens, UniProt P42680)
T8 construct: purchased Eurofins DiscoverX KINOMEscan (scanTK)
T8 sequence (P42680 1-631): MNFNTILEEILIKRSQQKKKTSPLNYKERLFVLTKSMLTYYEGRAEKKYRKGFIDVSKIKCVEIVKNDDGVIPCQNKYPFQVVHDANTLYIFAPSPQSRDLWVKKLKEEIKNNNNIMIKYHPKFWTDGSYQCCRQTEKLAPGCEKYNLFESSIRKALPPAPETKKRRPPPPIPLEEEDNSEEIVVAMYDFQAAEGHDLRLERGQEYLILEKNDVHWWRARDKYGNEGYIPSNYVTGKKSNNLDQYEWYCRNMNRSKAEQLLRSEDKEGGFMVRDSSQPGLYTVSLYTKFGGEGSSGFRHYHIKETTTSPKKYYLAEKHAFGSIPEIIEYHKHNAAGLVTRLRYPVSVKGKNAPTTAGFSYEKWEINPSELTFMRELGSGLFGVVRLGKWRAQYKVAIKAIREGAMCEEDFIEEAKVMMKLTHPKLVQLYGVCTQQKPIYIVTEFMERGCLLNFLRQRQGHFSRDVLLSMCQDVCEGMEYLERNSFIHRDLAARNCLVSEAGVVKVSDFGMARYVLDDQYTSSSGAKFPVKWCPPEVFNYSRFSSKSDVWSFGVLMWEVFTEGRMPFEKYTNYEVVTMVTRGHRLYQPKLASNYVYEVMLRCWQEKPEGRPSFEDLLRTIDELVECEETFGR

[9] = target: T9, ABL1(E255K)-phosphorylated (Homo sapiens, UniProt P00519, E255K)
T9 construct: purchased Eurofins DiscoverX KINOMEscan (scanTK)

[10] = target: T10, KIT(V559D,T670I) (Homo sapiens, UniProt P10721, T670I/V559D)
T10 construct: purchased Eurofins DiscoverX KINOMEscan (scanTK)

[11] = target: T11, LCK (Homo sapiens, UniProt P06239)
T11 construct: purchased Eurofins DiscoverX KINOMEscan (scanTK)

[12] = target: T12, EGFR (Homo sapiens, UniProt P00533)
T12 construct: purchased Eurofins DiscoverX KINOMEscan (scanTK)

[13] = @1000nM, ERBB2, read-out: %Control
[14] = ERBB2, read-out: %Control @1000nM
[15] = @1000nM, read-out: % difference (compound - Ib %Control)

T1 sequence (P29597 575-869 limits assumed): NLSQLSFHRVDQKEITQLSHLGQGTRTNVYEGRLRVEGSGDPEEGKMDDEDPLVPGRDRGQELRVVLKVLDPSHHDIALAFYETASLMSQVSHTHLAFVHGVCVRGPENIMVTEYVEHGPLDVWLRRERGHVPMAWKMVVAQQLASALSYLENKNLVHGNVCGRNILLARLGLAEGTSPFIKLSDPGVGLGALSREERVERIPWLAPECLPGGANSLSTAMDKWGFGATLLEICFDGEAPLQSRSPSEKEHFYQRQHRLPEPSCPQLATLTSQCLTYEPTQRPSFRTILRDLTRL
T7 sequence (P17948 27-1338): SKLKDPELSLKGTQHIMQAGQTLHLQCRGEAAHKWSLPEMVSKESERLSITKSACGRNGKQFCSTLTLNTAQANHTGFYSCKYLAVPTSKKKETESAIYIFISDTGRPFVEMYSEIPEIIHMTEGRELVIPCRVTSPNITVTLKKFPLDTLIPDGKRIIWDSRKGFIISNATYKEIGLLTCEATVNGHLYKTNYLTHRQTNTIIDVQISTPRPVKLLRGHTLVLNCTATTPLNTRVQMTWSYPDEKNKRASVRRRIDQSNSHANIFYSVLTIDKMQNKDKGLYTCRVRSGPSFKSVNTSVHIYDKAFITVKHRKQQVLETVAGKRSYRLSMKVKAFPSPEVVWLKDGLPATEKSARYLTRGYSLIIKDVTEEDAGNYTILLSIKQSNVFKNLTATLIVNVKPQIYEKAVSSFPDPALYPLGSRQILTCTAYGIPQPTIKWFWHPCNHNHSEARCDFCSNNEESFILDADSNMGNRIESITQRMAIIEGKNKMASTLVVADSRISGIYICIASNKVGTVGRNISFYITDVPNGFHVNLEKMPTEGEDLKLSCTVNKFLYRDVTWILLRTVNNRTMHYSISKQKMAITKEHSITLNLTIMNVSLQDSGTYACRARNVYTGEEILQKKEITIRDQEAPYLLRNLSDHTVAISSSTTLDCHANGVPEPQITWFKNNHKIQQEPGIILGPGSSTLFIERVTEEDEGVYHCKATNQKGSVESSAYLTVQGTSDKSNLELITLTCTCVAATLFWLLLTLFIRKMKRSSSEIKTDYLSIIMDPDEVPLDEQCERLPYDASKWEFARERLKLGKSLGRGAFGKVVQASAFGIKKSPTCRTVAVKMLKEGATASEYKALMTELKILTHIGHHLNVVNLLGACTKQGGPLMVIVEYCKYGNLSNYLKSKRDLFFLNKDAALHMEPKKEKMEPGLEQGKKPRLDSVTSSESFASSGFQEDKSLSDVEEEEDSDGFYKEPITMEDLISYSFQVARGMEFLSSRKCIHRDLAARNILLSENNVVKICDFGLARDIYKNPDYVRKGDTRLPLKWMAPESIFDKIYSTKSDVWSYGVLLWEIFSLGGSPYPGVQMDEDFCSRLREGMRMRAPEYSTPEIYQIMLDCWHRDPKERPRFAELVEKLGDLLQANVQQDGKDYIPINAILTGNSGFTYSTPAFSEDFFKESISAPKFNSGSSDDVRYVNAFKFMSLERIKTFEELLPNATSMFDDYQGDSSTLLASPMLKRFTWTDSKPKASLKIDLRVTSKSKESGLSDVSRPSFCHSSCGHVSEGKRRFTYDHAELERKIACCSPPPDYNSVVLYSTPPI
T12 sequence (P00533 25-1210): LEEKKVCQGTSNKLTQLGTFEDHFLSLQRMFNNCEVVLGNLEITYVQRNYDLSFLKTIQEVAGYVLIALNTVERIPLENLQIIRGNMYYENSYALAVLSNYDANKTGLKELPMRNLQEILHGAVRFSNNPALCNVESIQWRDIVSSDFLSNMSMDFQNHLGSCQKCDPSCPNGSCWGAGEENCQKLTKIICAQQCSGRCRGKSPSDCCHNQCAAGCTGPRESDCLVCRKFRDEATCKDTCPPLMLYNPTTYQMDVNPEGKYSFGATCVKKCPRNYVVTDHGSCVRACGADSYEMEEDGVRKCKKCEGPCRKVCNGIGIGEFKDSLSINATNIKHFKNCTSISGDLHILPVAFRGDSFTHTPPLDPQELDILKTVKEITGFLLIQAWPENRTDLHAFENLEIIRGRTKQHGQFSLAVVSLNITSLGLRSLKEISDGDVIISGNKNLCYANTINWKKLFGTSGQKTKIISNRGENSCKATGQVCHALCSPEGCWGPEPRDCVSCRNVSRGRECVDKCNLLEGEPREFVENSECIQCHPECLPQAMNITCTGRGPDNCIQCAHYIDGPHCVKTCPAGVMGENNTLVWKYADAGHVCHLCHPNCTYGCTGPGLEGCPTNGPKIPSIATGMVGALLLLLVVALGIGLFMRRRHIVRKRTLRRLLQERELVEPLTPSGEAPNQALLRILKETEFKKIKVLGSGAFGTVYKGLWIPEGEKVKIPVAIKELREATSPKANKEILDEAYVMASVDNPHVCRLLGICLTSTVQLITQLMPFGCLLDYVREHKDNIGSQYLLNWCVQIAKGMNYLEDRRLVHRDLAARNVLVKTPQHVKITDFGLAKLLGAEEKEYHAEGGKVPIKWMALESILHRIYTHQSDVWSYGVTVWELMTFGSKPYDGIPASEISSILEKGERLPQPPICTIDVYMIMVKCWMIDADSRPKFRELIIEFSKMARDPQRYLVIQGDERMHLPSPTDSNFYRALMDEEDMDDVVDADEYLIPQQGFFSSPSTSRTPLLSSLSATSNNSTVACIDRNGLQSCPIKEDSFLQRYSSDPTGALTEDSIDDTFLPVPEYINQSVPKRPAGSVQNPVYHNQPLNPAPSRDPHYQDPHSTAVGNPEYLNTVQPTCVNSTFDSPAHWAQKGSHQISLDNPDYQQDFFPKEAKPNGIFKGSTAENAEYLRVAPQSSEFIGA
T2 sequence (P04626 23-1255): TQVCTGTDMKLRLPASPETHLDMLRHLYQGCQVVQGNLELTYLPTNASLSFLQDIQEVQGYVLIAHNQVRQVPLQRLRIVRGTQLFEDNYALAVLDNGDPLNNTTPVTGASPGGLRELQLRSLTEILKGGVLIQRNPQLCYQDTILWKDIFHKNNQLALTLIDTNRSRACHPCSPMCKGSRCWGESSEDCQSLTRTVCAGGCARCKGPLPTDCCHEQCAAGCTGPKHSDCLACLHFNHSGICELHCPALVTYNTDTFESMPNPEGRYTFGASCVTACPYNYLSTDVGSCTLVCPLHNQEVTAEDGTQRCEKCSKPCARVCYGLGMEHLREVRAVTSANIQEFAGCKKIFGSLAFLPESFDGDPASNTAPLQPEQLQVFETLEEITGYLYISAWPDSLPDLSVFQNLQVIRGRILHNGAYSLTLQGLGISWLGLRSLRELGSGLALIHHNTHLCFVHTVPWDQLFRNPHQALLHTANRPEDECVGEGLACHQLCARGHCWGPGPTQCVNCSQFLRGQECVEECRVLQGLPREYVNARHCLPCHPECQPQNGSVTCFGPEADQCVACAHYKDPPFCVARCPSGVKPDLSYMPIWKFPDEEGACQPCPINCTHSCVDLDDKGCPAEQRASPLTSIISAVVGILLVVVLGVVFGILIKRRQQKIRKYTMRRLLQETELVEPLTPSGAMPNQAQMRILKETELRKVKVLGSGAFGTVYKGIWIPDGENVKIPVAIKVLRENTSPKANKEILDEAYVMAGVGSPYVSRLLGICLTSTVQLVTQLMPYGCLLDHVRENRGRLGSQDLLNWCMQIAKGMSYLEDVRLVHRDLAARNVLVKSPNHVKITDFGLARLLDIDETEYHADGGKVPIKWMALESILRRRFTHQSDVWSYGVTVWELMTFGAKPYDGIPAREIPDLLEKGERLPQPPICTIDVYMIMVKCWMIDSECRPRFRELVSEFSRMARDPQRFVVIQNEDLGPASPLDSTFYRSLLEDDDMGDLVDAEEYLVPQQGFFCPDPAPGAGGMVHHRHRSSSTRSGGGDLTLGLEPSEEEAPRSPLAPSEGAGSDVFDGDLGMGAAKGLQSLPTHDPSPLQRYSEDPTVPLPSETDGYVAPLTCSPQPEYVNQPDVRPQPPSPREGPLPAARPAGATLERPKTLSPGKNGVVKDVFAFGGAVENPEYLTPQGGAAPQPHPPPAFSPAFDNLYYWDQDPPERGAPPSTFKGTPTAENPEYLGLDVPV
T10 sequence (P10721 26-976 V559D/T670I): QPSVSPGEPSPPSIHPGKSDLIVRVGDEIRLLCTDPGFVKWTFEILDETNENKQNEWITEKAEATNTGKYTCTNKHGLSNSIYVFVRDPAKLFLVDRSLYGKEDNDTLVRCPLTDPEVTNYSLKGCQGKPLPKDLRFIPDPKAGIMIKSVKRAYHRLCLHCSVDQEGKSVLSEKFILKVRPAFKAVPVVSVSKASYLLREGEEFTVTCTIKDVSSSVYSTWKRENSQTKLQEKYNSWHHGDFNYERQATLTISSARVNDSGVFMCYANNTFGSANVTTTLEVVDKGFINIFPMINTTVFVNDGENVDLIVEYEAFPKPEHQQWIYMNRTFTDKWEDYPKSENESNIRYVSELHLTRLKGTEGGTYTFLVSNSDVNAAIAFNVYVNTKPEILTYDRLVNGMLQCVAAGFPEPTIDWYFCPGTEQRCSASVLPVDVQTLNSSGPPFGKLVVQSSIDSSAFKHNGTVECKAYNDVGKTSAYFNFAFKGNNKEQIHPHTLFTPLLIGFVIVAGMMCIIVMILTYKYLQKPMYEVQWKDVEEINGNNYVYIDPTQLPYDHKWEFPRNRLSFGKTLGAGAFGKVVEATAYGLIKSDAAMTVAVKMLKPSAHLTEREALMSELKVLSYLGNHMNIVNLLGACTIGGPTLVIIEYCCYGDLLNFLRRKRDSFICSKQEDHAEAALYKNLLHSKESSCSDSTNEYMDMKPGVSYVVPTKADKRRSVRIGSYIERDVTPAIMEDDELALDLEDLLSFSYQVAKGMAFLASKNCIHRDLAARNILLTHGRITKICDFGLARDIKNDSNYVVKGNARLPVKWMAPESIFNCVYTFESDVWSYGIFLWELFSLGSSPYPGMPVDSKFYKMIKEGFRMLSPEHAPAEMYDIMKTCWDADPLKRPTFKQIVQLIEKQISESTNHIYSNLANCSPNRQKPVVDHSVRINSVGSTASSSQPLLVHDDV

| Structure (SMILES) | remaining binding at 1 µM ([1]; @1000nM, read-out: %Control) | remaining binding at 1 µM ([1]; read-out: %Control @1000nM) | remaining binding at 1 µM [2, 13] | remaining binding at 1 µM [2, 14] | remaining binding at 1 µM ([3]; @1000nM, read-out: %Control) | remaining binding at 1 µM ([3]; read-out: %Control @1000nM) | remaining binding at 1 µM ([4]; @1000nM, read-out: %Control) | remaining binding at 1 µM ([4]; read-out: %Control @1000nM) | remaining binding at 1 µM ([5]; @1000nM, read-out: %Control) | remaining binding at 1 µM ([5]; read-out: %Control @1000nM) | remaining binding at 1 µM ([6]; @1000nM, read-out: %Control) | remaining binding at 1 µM ([6]; read-out: %Control @1000nM) | remaining binding at 1 µM ([7]; @1000nM, read-out: %Control) | remaining binding at 1 µM ([7]; read-out: %Control @1000nM) | remaining binding at 1 µM ([8]; @1000nM, read-out: %Control) | remaining binding at 1 µM ([8]; read-out: %Control @1000nM) | remaining binding at 1 µM ([9]; @1000nM, read-out: %Control) | remaining binding at 1 µM ([9]; read-out: %Control @1000nM) | remaining binding at 1 µM ([10]; @1000nM, read-out: %Control) | remaining binding at 1 µM ([10]; read-out: %Control @1000nM) | further results |
| --- | --- | --- | --- | --- | --- | --- | --- | --- | --- | --- | --- | --- | --- | --- | --- | --- | --- | --- | --- | --- | --- |
| C=CC(=O)N1CCC[C@@H](n2nc(-c3ccc(Oc4ccccc4)cc3)c3c(N)ncnc32)C1 [Compound 1g, Ibrutinib, reference compound] | 88% | 88% | 0% | 0% | 94% | 94% | 0% | 0% | 93% | 93% | 8.7% | 8.7% | 72% | 72% | 20% | 20% | 64% | 64% | 68% | 68% | inhibition at 1 µM ([2]; ScanTK, 1 μM): > 99%; inhibition at 1 µM ([4]; read-out: % inhibition, SRMS): > 99% |
| COC(=O)c1cnc(S(C)(=O)=O)nc1N1CCCC(n2nc(-c3ccc(Oc4ccccc4)cc3)c3c(N)ncnc32)C1 (stereo not drawn) [Compound 8b, Methyl 4-(3-(4-Amino-3-(4-phenoxyphenyl)-1H-pyrazolo[3,4-d]pyrimidin-1-yl)piperidin-1-yl)-2-(methylsulfonyl)pyrimidine-5-carboxylate] | 96% | 96% | 41% | 41% | 100% | 100% | 27% | 27% | 88% | 88% | 11% | 11% | 98% | 98% | 32% | 32% | 81% | 81% | 92% | 92% | difference in %Control versus Ib at 1 µM [1, 15]: 8%; difference in %Control versus compound Ib at 1 µM ([2]; @1000nM, ERBB2): 41%; difference in %Control versus compound Ib at 1 µM ([3]; @1000nM): 6%; difference in %Control from compound Ib at 1 µM ([7]; @1000nM): 26%; difference in %Control from reference Ib at 1 µM [9, 15]: 17%; remaining binding at 1 µM ([11]; @1000nM, read-out: %Control): 8.3%; remaining binding at 1 µM ([11]; read-out: %Control @1000nM): 8.3%; difference in %Control versus compound Ib at 1 µM ([10]; @1000nM): 24%; difference in %Control versus reference compound Ib at 1 µM ([12]; @1000nM, EGFR): 32.8%; remaining binding at 1 µM ([12]; @1000nM, EGFR, read-out: %Control): 33%; remaining binding at 1 µM ([12]; EGFR, read-out: %Control @1000nM): 33%; inhibition at 1 µM ([12]; ScanTK, 1 μM, WT EGFR): 67% |
